Results: patent publication US5378846A, “1,2,3,4-tetrahydropyrrolo-[1,2-a]-pyrazine derivatives” (Russian-American Institute For New Drug Development, priority 1993, dated 1995)
Where “and” joins values, the source holds several entries; their conditions need not be identical. Equal values may be shown once.

Tests used:
[1] = tested on: duration of immobility in mice; assay: Behavioural despair test (forced swimming); format: in vivo, outbred male mice; conditions: for Influence on duration of immobility, in words: forced swimming; for The duration of immobility: i.p.
Description: (§1) Compounds according to the present invention were checked for their influence on gross behaviour. The experiments described herein (Examples 11, 12, 13, 14, and 15) were carried out using outbred male mice weighing approximately 18-24 g. Each substance was administered intraperitoneally 45 min. before the experiment. Locomotor activity was estimated individually for each animal for 3 min. using an actometer `Era-1` (Russia).
The influence of compounds on behavioral despair was studied according to the model described by Porsolt et al., Arch. int. pharmacodyn.et ther., 228, 327-[…] (1977), which is incorporated herein by reference. Mice, when forced to swim in a cylinder of water without the possibility of escape, rapidly adopt a characteristic immobile posture. […] The only movements they make are those necessary to keep their heads above water.

[2] = Acute toxicity in mice; conditions: mouse, in vivo, ip, mice, i.p., lethality 24 hours later, Table 6 (range in brackets beside); read-out: LD50
Description: as §1
The compounds of the present invention were checked for acute toxicity in outbred male mice (18-22 g.). They were administered intraperitoneally and the lethality was estimated 24 hours later (Table 6). In the dose range of 500-1000 mg/kg i.p. Compound 1 caused death in 50% of the animals. Compound 1 is almost 5 times less toxic than other compounds.

[3] = tested on: locomotor activity in mice; assay: Locomotor activity in mice (actometer); format: in vivo, outbred male mice; conditions: i.p.
Description: as §1

[4] = tested on: rat behavior in Vogel conflict test; assay: Vogel conflict test (anxiolytic activity, punished responses in water-deprived rats); format: in vivo, outbred male albino rats; conditions: rat
Description: Compounds according to the present invention were checked for their anxiolytic activity. Behaviour suppressed by punishment is a very reliable indicator of the anxiolytic activity of drugs. A variant of the conflict situation test was used to reveal anxiety in water-deprived rats whose licking was suppressed by shock (see Vogel et al., Phychopharmacologia, 21, 1-7 (1971); J. E. Barrett in Animal Models in Psychopharmacology, Advances in Pharmacological Sciences, 1991; and Birkhauser Verlag, Basel, p. 37.52, Molodavkin et al., Exper. Clin. Pharmacol., 56, (1993), which are incorporated herein by reference).
The experiments were carried out using outbred male albino rats (180-220 g). This experiment involved previous training of water-deprived rats to drink water from a trough. Next day electrical stimulation was given delivering 0.5 mA electric shocks through the trough and metal grid floor of the experimental chamber. A conflict situation was created by clashing motivations (survival and self defense). The degree of anxiolytic activity was estimated by the measurement of the amount of punished licks for 10 min. Each compound was administered intraperitoneally 45 min. before the conflict test.

[5] = tested on: aggressive behavior in mice; assay: Antiaggressive activity (threshold of aggressive behavior, electrified floor); format: in vivo, outbred male mice
Description: as §1
The effect of Compound 1 on the threshold of the aggressive behavior was determined in the experiment on outbred mice (R. Tedesci et al., J. Pharmacol. Exp. Ther., 125, 28-34, (1959), which is incorporated herein by reference). The paired mice were placed on the electrified floor. The strength of the current, which provoked the fighting, was recorded.

[6] = tested on: memory formation in rats; assay: Passive avoidance test, step-through (memory formation, retention); format: in vivo, outbred male albino rats; conditions: rat, 5.0 mg/kg i.p., retention 24 hours later, 3 min
Description: The influence of Compound 1 on memory formation was studied in a passive avoidance test, step-through paradigm (equipment of Laffaette Co., USA). The experiments were carried out on outbred male albino rats ([…]). Compound 1 and other drugs were administered intraperitoneally 45 min. before the passive avoidance training. The retention was tested 24 hours later learning (painful electroshock in the dark compartment) by the measurement of the time spent in the dark compartment for 3 min.

[7] = tested on: motor behavior in mice; assay: Horizontal wire test (coordination of movements and myorelaxation); conditions: mice
Description: (§2) The influence of Compound 1 on the motor behavior was studied according to a "rotating rod" test and a "horizontal wire" test in outbred male mice (18-22 g). A rotating rod (2 cm diameter and 5 rpm speed) was used. Acquisition was defined as the ability to remain on the rotating rod for 2 min. Each animal had two trials. According to the "horizontal wire" test a mouse was hung on the wire (0.3 cm. diameter, wire was fixed horizontally 40 cm above the floor) by the forepaws. The ability to pull the hind legs up to the wire for 2 min. was a criterion of test performance.

[8] = tested on: motor behavior in mice; assay: Rotating rod test (coordination of movements and myorelaxation); conditions: mice
Description: as §2

[9] = as above; conditions: mouse, in vivo
Description: as §2

[10] = Horizontal wire test (coordination of movements and myorelaxation); conditions: mouse, in vivo
Description: as §2

[11] = 2.0 mg/kg i.p., 45 min before test, Table 1

## CC(=O)N1CCn2c(CN3CCOCC3)ccc2C1 [Compound 4, 2-Acetyl-6-(Morpholinomethyl)-1,2,3,4-Tetrahydropyrrolo-[1,2-a]-Pyrazine]
[1]
  Influence on duration of immobility, in words: did not show any activity
[1]; 10.0 mg/kg
  The duration of immobility: 197.3 ± 5.9 s
[1]; 20.0 mg/kg
  The duration of immobility: 202.7 ± 6.7 s
[2]
  LD50 at 24 h: 105 mg/kg
[3]; 10.0 mg/kg
  The number of movements for 3 min., horizontal activity: 479.6 ± 22.8
  The number of movements for 3 min., vertical activity: 17.6 ± 6.9
[3]; 20.0 mg/kg
  The number of movements for 3 min., horizontal activity: 564.5 ± 22.5
  The number of movements for 3 min., vertical activity: 24.7 ± 5.6
[4]; [11]
  The number of punished responses: 9.25 ± 1.75

## CN1C(=O)CN=C(c2ccccc2)c2cc(Cl)ccc21 [Diazepam, reference compound]
[5]; 1.0 mg/kg i.p.
  Aggression threshold: 45.4 ± 9.5 V
[5]; 5.0 mg/kg i.p.
  Aggression threshold: 92.4 ± 15.6 V
[6]
  The time spent in dark compartment: 127.7 ± 21.1 s
  The time spent in light compartment: 52.3 ± 11.3 s
[7]; dose 1.0
  Disturbances according to horizontal wire test, effect in %: 20%
[7]; dose 2.0
  Disturbances according to horizontal wire test, effect in %: 40%
[7]; dose 5.0
  Disturbances according to horizontal wire test, effect in %: 80%
[4]; i.p., dose 1.0 mg/kg, Table 2
  The number of punished responses: 22.25 ± 10.89
[4]; i.p., dose 2.0 mg/kg, Table 2
  The number of punished responses: 47.25 ± 22.49

## CN1CCN=C(c2ccccc2)c2cc(Cl)ccc21 [Medazepam, reference compound]
[5]; 5.0 mg/kg i.p.
  Aggression threshold: 32.2 ± 5.25 V
[5]; 10.0 mg/kg i.p.
  Aggression threshold: 43.1 ± 4.2 V
[6]
  The time spent in dark compartment: 142.6 ± 19.58 s
  The time spent in light compartment: 37.4 ± 19.5 s
[8]; dose 2.5
  Disturbances according to rotating rod test, effect in %: 40%
[8]; dose 5.0
  Disturbances according to rotating rod test, effect in %: 50%
[8]; dose 10.0
  Disturbances according to rotating rod test, effect in %: 96%
[9]
  TD50: 5.2 mg/kg
[7]; dose 2.5
  Disturbances according to horizontal wire test, effect in %: 33%
[7]; dose 5.0
  Disturbances according to horizontal wire test, effect in %: 50%
[7]; dose 10.0
  Disturbances according to horizontal wire test, effect in %: 75%
[10]
  TD50: 7.5 mg/kg

## O=C(O)C(=O)O.O=C(c1ccccc1)N1CCn2c(CN3CCCCC3)ccc2C1 [Compound 6, 2-Benzoyl-6-(Piperidinomethyl)-1,2,3,4-Tetrahydropyrrolo-[1,2-a]-Pyrazine Hydrooxalate]
[1]
  Influence on duration of immobility, in words: reduced the duration of immobility
[1]; 1.0 mg/kg
  The duration of immobility: 184.3 ± 11.7 s
[1]; 10.0 mg/kg
  The duration of immobility: 201.7 ± 13.1 s
[2]
  LD50 at 24 h: 389 mg/kg
[3]; 10.0 mg/kg
  The number of movements for 3 min., horizontal activity: 693.0 ± 25.3
  The number of movements for 3 min., vertical activity: 16.5 ± 6.2
[3]; 20.0 mg/kg
  The number of movements for 3 min., horizontal activity: 644.0 ± 30.4
  The number of movements for 3 min., vertical activity: 19.9 ± 3.4
[4]; [11]
  The number of punished responses: 30.75 ± 13.17

## CN(C)Cc1ccc2n1CCN(C(=O)c1ccccc1)C2 [Compound 5, 2-Benzoyl-6-(Dimethylaminomethyl)-1,2,3,4-Tetrahydropyrrolo-[1,2-]-Pyrazine]
[1]
  Influence on duration of immobility, in words: reduced the duration of immobility
[1]; 10.0 mg/kg
  The duration of immobility: 189.4 ± 10.3 s and 218.3 ± 12.1 s
[1]; 20.0 mg/kg
  The duration of immobility: 216.4 ± 14.2 s
[2]
  LD50 at 24 h: 77 mg/kg
[3]; 10.0 mg/kg
  The number of movements for 3 min., horizontal activity: 676.1 ± 34.5
  The number of movements for 3 min., vertical activity: 36.1 ± 5.8
[3]; 20.0 mg/kg
  The number of movements for 3 min., horizontal activity: 659.7 ± 32.7
  The number of movements for 3 min., vertical activity: 36.6 ± 8.6
[4]; [11]
  The number of punished responses: 85.25 ± 32.04

## CC(=O)N1CCn2c(CN(C)C)ccc2C1 [Compound 2, hydrooxalate of 2-acetyl-6-(dimethylaminomethyl)-1,2,3,4-tetrahydropyrrolo-[1,2-a]-pyrazine]
[1]
  Influence on duration of immobility, in words: increased the duration of immobility
[1]; 10.0 mg/kg
  The duration of immobility: 203.4 ± 14.1 s
[1]; 20.0 mg/kg
  The duration of immobility: 234.9 ± 12.6 s
[2]
  LD50 at 24 h: 340 mg/kg
[3]
  Influence on locomotor activity, in words: decrease locomotor activity
[3]; 10.0 mg/kg
  The number of movements for 3 min., horizontal activity: 524.4 ± 36.9
  The number of movements for 3 min., vertical activity: 10.0 ± 2.1
[3]; 20.0 mg/kg
  The number of movements for 3 min., horizontal activity: 489.1 ± 9.7
  The number of movements for 3 min., vertical activity: 22.4 ± 3.0
[4]; [11]
  The number of punished responses: 63.00 ± 35.38

## CC(=O)N1CCn2c(CN3CCCCC3)ccc2C1 [Compound 3, 2-Acetyl-6-(Piperidinomethyl)-1,2,3,4-Tetrahydropyrrolo-[1,2-]-Pyrazine]
[1]
  Influence on duration of immobility, in words: increased the duration of immobility
[1]; 10.0 mg/kg
  The duration of immobility: 209.3 ± 6.5 s
[1]; 20.0 mg/kg
  The duration of immobility: 254.6 ± 10.9 s
[2]
  LD50 at 24 h: 414 mg/kg
[3]
  Influence on locomotor activity, in words: decrease locomotor activity
[3]; 10.0 mg/kg
  The number of movements for 3 min., horizontal activity: 532.5 ± 42.1
  The number of movements for 3 min., vertical activity: 8.1 ± 1.9
[3]; 20.0 mg/kg
  The number of movements for 3 min., horizontal activity: 442.7 ± 30.3
  The number of movements for 3 min., vertical activity: 9.2 ± 4.4
[4]; [11]
  The number of punished responses: 22.00 ± 4.86

## O=C(O)C(=O)O.O=C(c1ccccc1)N1CCn2c(CN3CCOCC3)ccc2C1 [Compound 7, 2-Benzoyl-6-(Morpholinomethyl)-1,2,3,4-Tetrahydropyrrolo-[1,2-a]-Pyrazine Hydrooxalate]
[1]
  Influence on duration of immobility, in words: did not show any activity
[1]; 10.0 mg/kg
  The duration of immobility: 169.3 ± 11.8 s
[1]; 20.0 mg/kg
  The duration of immobility: 147.8 ± 7.1 s
[2]
  LD50 at 24 h: 115 mg/kg
[3]
  Influence on locomotor activity, in words: decrease locomotor activity
[3]; 10.0 mg/kg
  The number of movements for 3 min., horizontal activity: 475.1 ± 11.2
  The number of movements for 3 min., vertical activity: 13.7 ± 2.5
[3]; 20.0 mg/kg
  The number of movements for 3 min., horizontal activity: 474.0 ± 14.7
  The number of movements for 3 min., vertical activity: 12.4 ± 3.8
[4]; [11]
  The number of punished responses: 25.00 ± 5.99
